Measured values reported in article PMC10838953.

Legend:
[1] = target: FLT1 (Homo sapiens, UniProt P17948); experiment: biochemical; settings: read-out: %Ctrl @ 2000nM
[2] = target: MYO3A (Homo sapiens, UniProt Q8NEV4); experiment: biochemical; settings: read-out: %Ctrl @ 2000nM
[3] = tested on: survivin; settings: 786-O cells; 2.5-15 μM; 48 h
[4] = target: ABL1(M351T)-phosphorylated (Homo sapiens, UniProt P00519, M351T); experiment: biochemical; settings: read-out: %Ctrl @ 2000nM
[5] = target: KIT(V559D) (Homo sapiens, UniProt P10721, V559D); experiment: biochemical; settings: read-out: %Ctrl @ 2000nM
[6] = target: WNK1 (Homo sapiens, UniProt Q9H4A3); experiment: biochemical; settings: read-out: %Ctrl @ 2000nM
[7] = target: PIK3CA(E542K) (Homo sapiens, UniProt P42336, E542K); experiment: biochemical; settings: read-out: %Ctrl @ 2000nM
[8] = target: SLK (Homo sapiens, UniProt Q9H2G2); experiment: biochemical; settings: read-out: %Ctrl @ 2000nM
[9] = target: FES (Homo sapiens, UniProt P07332); experiment: biochemical; settings: read-out: %Ctrl @ 2000nM
[10] = target: QSK (Homo sapiens, UniProt Q9Y2K2); experiment: biochemical; settings: read-out: %Ctrl @ 2000nM
QSK, sequence (Q9Y2K2 whole entry): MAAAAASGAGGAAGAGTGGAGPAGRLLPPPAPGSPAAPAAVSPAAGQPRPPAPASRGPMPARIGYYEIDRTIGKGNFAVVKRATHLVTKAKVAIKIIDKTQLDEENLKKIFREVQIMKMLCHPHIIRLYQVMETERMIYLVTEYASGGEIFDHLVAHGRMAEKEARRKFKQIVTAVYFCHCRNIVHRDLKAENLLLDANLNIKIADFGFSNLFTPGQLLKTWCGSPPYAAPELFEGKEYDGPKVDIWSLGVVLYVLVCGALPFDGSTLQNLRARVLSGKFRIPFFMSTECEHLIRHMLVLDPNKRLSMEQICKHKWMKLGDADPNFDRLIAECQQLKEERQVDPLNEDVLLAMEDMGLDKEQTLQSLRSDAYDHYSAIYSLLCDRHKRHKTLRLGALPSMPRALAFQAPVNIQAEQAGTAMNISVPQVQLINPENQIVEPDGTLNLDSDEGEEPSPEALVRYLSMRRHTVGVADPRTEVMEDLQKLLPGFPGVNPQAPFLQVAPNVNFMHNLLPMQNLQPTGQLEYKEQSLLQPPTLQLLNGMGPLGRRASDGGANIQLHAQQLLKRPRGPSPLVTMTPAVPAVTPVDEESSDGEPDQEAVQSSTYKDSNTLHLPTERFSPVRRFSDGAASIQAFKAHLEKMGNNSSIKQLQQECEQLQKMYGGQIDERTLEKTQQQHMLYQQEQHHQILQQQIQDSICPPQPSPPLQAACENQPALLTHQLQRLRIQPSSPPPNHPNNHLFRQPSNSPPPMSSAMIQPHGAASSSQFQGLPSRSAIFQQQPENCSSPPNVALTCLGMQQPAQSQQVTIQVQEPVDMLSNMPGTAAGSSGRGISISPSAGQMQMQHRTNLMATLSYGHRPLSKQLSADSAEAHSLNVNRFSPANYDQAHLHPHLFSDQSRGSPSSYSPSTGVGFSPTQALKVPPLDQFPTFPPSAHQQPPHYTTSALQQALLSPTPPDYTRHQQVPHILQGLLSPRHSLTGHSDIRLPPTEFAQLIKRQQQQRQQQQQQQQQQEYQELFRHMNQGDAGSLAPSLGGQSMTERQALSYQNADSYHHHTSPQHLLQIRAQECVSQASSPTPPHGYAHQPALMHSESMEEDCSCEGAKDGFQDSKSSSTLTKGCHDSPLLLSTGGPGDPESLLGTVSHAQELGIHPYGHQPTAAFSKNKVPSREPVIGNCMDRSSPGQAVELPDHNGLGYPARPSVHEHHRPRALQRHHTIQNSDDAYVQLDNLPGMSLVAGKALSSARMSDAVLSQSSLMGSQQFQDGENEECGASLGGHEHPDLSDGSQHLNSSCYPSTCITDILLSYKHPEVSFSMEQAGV

[11] = target: PHKG2 (Homo sapiens, UniProt P15735); experiment: biochemical; settings: read-out: %Ctrl @ 2000nM
PHKG2, sequence (P15735 whole entry): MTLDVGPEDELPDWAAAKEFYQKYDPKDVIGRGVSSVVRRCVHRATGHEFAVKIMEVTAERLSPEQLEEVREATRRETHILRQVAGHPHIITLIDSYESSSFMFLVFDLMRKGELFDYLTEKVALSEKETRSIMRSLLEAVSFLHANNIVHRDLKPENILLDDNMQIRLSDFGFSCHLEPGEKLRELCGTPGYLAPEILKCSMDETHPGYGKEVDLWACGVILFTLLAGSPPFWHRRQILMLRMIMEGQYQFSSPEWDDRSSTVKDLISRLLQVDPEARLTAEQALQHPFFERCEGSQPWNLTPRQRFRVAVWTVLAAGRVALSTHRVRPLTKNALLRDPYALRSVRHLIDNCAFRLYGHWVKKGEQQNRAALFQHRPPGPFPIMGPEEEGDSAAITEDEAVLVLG

[12] = target: RAF1 (Homo sapiens, UniProt P04049); experiment: biochemical; settings: read-out: %Ctrl @ 2000nM
[13] = target: HUNK (Homo sapiens, UniProt P57058); experiment: biochemical; settings: read-out: %Ctrl @ 2000nM
[14] = target: MERTK (Homo sapiens, UniProt Q12866); experiment: biochemical; settings: read-out: %Ctrl @ 2000nM
[15] = target: JAK2(JH1domain-catalytic) (Homo sapiens, UniProt O60674); experiment: biochemical; settings: read-out: %Ctrl @ 2000nM
JAK2(JH1domain-catalytic), sequence (O60674 840-1132 limits assumed): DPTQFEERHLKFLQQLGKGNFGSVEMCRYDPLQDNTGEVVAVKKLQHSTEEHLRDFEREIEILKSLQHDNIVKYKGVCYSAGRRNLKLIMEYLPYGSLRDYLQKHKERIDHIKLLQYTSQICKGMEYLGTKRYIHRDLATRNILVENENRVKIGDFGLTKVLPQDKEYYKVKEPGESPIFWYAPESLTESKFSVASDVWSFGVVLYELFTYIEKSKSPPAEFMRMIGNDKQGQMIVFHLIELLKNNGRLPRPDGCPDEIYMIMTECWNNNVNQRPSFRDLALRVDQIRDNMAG

[16] = target: PAK3 (Homo sapiens, UniProt O75914); experiment: biochemical; settings: read-out: %Ctrl @ 2000nM
[17] = target: BLK (Homo sapiens, UniProt P51451); experiment: biochemical; settings: read-out: %Ctrl @ 2000nM
BLK, sequence (P51451 whole entry): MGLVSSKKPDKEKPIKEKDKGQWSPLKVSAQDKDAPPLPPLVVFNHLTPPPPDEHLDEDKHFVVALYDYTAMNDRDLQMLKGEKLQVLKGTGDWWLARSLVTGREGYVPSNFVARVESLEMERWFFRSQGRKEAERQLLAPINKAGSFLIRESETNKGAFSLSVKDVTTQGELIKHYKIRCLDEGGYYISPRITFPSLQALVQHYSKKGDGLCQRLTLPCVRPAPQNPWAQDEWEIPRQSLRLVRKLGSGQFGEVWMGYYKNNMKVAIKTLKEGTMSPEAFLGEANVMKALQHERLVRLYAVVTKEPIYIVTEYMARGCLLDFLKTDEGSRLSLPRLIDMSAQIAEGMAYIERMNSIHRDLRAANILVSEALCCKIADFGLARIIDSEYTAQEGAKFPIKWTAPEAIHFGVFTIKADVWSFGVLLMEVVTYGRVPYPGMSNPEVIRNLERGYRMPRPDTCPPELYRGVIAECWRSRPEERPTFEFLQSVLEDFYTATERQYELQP

[18] = target: CDKL2 (Homo sapiens, UniProt Q92772); experiment: biochemical; settings: read-out: %Ctrl @ 2000nM
CDKL2, sequence (Q92772 whole entry): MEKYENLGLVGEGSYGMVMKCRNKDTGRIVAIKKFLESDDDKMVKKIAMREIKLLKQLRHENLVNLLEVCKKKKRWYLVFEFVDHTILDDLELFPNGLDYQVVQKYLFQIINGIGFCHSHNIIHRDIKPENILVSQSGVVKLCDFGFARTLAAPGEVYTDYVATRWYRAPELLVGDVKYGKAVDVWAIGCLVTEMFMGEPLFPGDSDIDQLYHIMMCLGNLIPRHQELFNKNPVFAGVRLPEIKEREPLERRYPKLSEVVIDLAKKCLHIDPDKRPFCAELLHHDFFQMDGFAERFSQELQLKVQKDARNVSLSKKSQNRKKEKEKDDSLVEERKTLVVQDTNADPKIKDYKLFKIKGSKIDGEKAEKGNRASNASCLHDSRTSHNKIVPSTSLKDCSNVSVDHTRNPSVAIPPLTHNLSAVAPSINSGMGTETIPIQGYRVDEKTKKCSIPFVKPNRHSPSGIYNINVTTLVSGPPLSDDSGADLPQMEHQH

[19] = target: CDK8 (Homo sapiens, UniProt P49336); experiment: biochemical; settings: read-out: %Ctrl @ 2000nM
[20] = target: p38-alpha (Homo sapiens, UniProt Q16539); experiment: biochemical; settings: read-out: %Ctrl @ 2000nM
[21] = target: ANKK1 (Homo sapiens, UniProt Q8NFD2); experiment: biochemical; settings: read-out: %Ctrl @ 2000nM
[22] = target: DLK (Homo sapiens, UniProt Q12852); experiment: biochemical; settings: read-out: %Ctrl @ 2000nM
[23] = target: DCAMKL3 (Homo sapiens, UniProt Q9C098); experiment: biochemical; settings: read-out: %Ctrl @ 2000nM
[24] = target: ERK1 (Homo sapiens, UniProt P27361); experiment: biochemical; settings: read-out: %Ctrl @ 2000nM
ERK1, sequence (P27361 whole entry): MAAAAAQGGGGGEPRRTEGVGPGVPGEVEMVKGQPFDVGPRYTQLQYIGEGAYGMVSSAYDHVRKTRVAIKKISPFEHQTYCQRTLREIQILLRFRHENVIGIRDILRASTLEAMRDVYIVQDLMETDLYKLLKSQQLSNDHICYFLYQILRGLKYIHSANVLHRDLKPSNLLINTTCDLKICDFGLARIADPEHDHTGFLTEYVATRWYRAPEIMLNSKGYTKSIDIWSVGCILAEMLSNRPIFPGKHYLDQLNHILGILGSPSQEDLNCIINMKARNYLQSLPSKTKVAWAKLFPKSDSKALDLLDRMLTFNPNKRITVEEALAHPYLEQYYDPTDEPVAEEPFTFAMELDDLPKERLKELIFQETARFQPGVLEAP

[25] = target: LATS1 (Homo sapiens, UniProt O95835); experiment: biochemical; settings: read-out: %Ctrl @ 2000nM
[26] = target: PFPK5(P.falciparum) (Plasmodium falciparum, UniProt P61075); experiment: biochemical; settings: read-out: %Ctrl @ 2000nM
[27] = target: EPHA1 (Homo sapiens, UniProt P21709); experiment: biochemical; settings: read-out: %Ctrl @ 2000nM
[28] = target: MET (Homo sapiens, UniProt P08581); experiment: biochemical; settings: read-out: %Ctrl @ 2000nM
[29] = target: CLK1 (Homo sapiens, UniProt P49759); experiment: biochemical; settings: read-out: %Ctrl @ 2000nM

MYO3A, sequence (Q8NEV4 whole entry): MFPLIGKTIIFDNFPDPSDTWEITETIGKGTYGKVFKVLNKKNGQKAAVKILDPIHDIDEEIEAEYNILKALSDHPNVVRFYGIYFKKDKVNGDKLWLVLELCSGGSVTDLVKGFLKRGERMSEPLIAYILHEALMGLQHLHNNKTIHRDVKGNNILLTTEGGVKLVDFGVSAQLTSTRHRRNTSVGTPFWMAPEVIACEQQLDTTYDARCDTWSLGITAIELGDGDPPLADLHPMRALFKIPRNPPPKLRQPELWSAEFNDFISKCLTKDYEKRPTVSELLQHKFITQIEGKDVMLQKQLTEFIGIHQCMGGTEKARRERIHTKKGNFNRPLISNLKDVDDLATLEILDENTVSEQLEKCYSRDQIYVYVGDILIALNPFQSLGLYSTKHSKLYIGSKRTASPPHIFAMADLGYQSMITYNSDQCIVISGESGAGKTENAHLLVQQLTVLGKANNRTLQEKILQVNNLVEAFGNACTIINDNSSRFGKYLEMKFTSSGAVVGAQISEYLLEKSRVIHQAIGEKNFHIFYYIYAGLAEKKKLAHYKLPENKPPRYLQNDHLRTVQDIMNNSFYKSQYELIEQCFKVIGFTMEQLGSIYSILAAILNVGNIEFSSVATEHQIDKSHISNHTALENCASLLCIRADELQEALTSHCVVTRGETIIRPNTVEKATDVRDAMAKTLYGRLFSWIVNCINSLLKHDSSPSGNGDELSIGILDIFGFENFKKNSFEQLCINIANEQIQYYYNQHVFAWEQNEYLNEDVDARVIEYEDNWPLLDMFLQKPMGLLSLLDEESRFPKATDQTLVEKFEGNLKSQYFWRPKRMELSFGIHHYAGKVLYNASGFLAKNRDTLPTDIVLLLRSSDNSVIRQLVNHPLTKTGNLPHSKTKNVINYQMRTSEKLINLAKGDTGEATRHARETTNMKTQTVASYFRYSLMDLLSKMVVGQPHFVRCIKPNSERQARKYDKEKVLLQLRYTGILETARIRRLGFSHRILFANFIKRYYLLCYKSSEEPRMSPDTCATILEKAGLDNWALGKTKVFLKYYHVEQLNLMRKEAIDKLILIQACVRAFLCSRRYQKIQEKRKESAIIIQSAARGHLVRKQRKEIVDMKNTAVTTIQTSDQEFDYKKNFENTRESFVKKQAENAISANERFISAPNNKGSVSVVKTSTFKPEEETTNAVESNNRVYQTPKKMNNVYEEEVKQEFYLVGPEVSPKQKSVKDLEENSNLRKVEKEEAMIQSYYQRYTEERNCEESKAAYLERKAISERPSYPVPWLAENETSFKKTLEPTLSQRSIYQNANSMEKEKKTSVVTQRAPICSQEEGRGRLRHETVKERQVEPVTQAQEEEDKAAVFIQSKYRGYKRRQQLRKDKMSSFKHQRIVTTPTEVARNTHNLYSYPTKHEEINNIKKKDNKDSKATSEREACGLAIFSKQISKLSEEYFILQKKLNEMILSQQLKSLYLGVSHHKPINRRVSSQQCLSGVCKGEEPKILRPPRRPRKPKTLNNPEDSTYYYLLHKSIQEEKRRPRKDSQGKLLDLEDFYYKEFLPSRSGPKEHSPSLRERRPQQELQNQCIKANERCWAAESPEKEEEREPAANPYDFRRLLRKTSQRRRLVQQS

## CC(C)COC(=O)c1[nH]c2ccc(F)cc2c1-c1cn(CC2CCN(CCNS(=O)(=O)c3ccc(CC(C)C)cc3)CC2)nn1 [AB668, isobutyl 5-fluoro-3-(1-((1-(2-((4-isobutylphenyl)sulfonamido)ethyl)piperidin-4-yl)methyl)-1H-1,2,3-triazol-4-yl)-1H-indole-2-carboxylate]
[1]
  remaining activity at 2 µM: 85%
[2]
  remaining activity at 2 µM: 96%
[3]
  expression of survivin: reduced the expression of survivin
[4]
  remaining activity at 2 µM: 86%
[5]
  remaining activity at 2 µM: 98%
[6]
  remaining activity at 2 µM: 100%
[7]
  remaining activity at 2 µM: 99%
[8]
  remaining activity at 2 µM: 100%
[9]
  remaining activity at 2 µM: 91%
[10]
  remaining activity at 2 µM: 85%
[11]
  remaining activity at 2 µM: 88%
[12]
  remaining activity at 2 µM: 100%
[13]
  remaining activity at 2 µM: 88%
[14]
  remaining activity at 2 µM: 96%
[15]
  remaining activity at 2 µM: 85%
[16]
  remaining activity at 2 µM: 95%
[17]
  remaining activity at 2 µM: 100%
[18]
  remaining activity at 2 µM: 84%
[19]
  remaining activity at 2 µM: 81%
[20]
  remaining activity at 2 µM: 87%
[21]
  remaining activity at 2 µM: 100%
[22]
  remaining activity at 2 µM: 83%
[23]
  remaining activity at 2 µM: 91%
[24]
  remaining activity at 2 µM: 75%
[25]
  remaining activity at 2 µM: 100%
[26]
  remaining activity at 2 µM: 100%
[27]
  remaining activity at 2 µM: 99%
[28]
  remaining activity at 2 µM: 100%
[29]
  remaining activity at 2 µM: 67%
